Experimental data from US12139520B2 (priority 2020, dated 2024).
pEC50: −log10 of the molar value. Bridge positions count the residues as written; N and C are the ends. Square brackets hold non-standard residues; d marks the D form. Peptide text beside a SMILES is read from it. Hyp = O=C(O)[C@@H]1C[C@@H](O)CN1; Cit = NC(=O)NCCC[C@H](N)C(=O)O

Key:
[1] = Physical stability of peptide analogues (Thioflavin T fibrillation); type: physicochemical; details: maximum ThT signal normalized between hAMY maximum and buffer background; 40° C., shaking, four days; pH 7 per table title
Summary of the method: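 Samples are stressed at 40 °C for four days, being shaken at 700 rpm before each 10-min fluorescence reading of 4 μM Thioflavin T. Buffers were pH 4 acetate or pH 7 phosphate. Reported values are smoothed maximum ThT signals as a percentage of the hAMY-to-background range.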

hAMY3 receptor = molecular target: T1, hAMY3 receptor (Homo sapiens, UniProt O60896+P30988); assay: cAMP assay for in vitro receptor activation, hAMY3-R; type: cell-based; details: cAMP assay, hAMY3 receptor; read-out: hAMY3R EC50
T1 sequence (P30988 25-474): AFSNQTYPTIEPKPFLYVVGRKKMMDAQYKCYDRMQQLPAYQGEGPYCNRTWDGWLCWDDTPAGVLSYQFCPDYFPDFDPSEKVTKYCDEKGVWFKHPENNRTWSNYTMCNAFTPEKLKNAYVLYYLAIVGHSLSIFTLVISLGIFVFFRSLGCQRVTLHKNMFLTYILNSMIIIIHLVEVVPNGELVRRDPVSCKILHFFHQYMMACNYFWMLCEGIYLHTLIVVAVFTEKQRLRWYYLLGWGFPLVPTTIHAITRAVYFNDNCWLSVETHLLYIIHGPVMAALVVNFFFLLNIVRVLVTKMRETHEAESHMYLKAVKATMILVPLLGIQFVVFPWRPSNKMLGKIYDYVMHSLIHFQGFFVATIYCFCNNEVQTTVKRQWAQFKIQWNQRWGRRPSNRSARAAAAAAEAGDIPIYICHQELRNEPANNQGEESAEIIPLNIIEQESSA
T1 sequence (O60896 24-148 partner): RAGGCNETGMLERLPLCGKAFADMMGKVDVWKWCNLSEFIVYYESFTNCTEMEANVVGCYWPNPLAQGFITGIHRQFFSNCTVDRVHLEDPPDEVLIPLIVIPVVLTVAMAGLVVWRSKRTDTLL
Summary of the method: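 Monoclonal cell line stably overexpressing human AMY3 receptor, 2000 cells/well in DPBS with 0.05% casein and 0.5 mM IBMX. Stimulated 30 min at room temperature with graded compound doses, human amylin as positive control. cAMP accumulation read by TR-FRET after one hour.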

hAM1 receptor = hAM1 receptor (Homo sapiens, UniProt O60895+Q16602); assay: cAMP assay for in vitro receptor activation, hAM1-R; type: cell-based; details: cAMP assay, hAM1 receptor; read-out: hAM1R EC50
Sequence of hAM1 receptor (Q16602 23-461): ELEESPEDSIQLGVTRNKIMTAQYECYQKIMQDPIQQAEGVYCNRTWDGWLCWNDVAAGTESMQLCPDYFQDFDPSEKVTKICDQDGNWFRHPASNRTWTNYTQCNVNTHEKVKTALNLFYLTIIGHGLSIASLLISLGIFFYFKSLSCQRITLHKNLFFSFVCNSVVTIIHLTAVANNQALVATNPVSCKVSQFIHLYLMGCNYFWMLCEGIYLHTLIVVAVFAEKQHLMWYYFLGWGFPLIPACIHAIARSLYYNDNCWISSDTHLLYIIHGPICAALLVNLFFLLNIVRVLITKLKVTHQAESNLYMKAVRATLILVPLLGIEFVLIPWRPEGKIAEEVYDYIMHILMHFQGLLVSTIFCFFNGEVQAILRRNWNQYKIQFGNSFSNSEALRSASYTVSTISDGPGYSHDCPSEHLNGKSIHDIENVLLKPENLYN
Sequence of hAM1 receptor (O60895 43-175 partner): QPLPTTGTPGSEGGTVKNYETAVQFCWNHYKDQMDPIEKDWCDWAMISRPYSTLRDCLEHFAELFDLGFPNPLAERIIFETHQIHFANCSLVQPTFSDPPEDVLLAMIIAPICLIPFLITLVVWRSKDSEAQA
Summary of the method: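 Receptor activation, read as cAMP, was assessed in thawed cells of a monoclonal hAM1-overexpressing stable line, plated at 8000 cells/well in DPBS supplemented with 0.05% casein and 0.5 mM IBMX.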

Structure (SMILES)	Max ThT signal (%) [1] [%]	pEC50 (hAMY3 receptor)	pEC50 (hAM1 receptor)
CC[C@H](C)[C@H](NC(=O)[C@H](CCC(N)=O)NC(=O)[C@H](Cc1c[nH]cn1)NC(=O)[C@H](C)NC(=O)[C@H](CC(C)C)NC(=O)[C@H](CCCNC(N)=O)NC(=O)[C@H](CCC(N)=O)NC(=O)[C@@H](NC(=O)[C@@H](NC(=O)[C@@H]1CSSC[C@H](NC(=O)[C@@H](N)CCCCN)C(=O)N[C@@H](CC(N)=O)C(=O)N[C@@H]([C@@H](C)O)C(=O)N[C@@H](C)C(=O)N[C@@H]([C@@H](C)O)C(=O)N1)[C@@H](C)O)C(C)C)C(=O)N[C@@H](Cc1ccc(O)cc1)C(=O)N[C@@H](CCC(N)=O)C(=O)N[C@@H](Cc1ccccc1)C(=O)N[C@H](C(=O)N[C@@H](CC(=O)O)C(=O)N[C@@H](CCCCN)C(=O)N[C@@H](CC(=O)O)C(=O)N[C@@H](CCCCN)C(=O)N[C@@H](CC(=O)O)C(=O)N[C@@H](CC(N)=O)C(=O)N[C@@H](C)C(=O)N[C@@H](C)C(=O)N1CCC[C@H]1C(=O)N1CCC[C@H]1C(=O)N[C@H](C(=O)N[C@@H](CC(N)=O)C(=O)N[C@H](C(=O)NCC(=O)N[C@@H](CO)C(=O)N[C@@H](CC(N)=O)C(=O)NCC(=O)N1C[C@H](O)C[C@H]1C(N)=O)C(C)C)[C@@H](C)O)[C@@H](C)O [compound 251] (H-KCNTATCTVQ[Cit]LAHQIYQFTDKDKDNAAPPTNVGSNG[Hyp]-NH2; disulfide 2-7; N-terminus assumed)	10.600	11.22	< 5.30
CC[C@H](C)[C@H](NC(=O)[C@H](CCC(N)=O)NC(=O)[C@H](Cc1c[nH]cn1)NC(=O)[C@H](C)NC(=O)[C@H](CC(C)C)NC(=O)[C@H](CCCNC(N)=O)NC(=O)[C@H](CCC(N)=O)NC(=O)[C@@H](NC(=O)[C@@H](NC(=O)[C@@H]1CSSC[C@H](NC(=O)[C@@H](N)CCCCN)C(=O)N[C@@H](CC(N)=O)C(=O)N[C@@H]([C@@H](C)O)C(=O)N[C@@H](C)C(=O)N[C@@H]([C@@H](C)O)C(=O)N1)[C@@H](C)O)C(C)C)C(=O)N[C@@H](Cc1ccc(O)cc1)C(=O)N[C@@H](CCC(N)=O)C(=O)N[C@@H](Cc1ccccc1)C(=O)N[C@H](C(=O)N[C@@H](CC(=O)O)C(=O)N[C@@H](CCCCN)C(=O)N[C@@H](CC(=O)O)C(=O)N[C@@H](CCCCN)C(=O)N[C@@H](CC(=O)O)C(=O)N[C@@H](CC(N)=O)C(=O)N[C@H](C(=O)N[C@@H](C)C(=O)N1CCC[C@H]1C(=O)N[C@@H](C)C(=O)N[C@H](C(=O)N[C@@H](CC(N)=O)C(=O)N[C@H](C(=O)NCC(=O)N[C@@H](CO)C(=O)N[C@@H](CC(N)=O)C(=O)NCC(=O)N1C[C@H](O)C[C@H]1C(N)=O)C(C)C)[C@@H](C)O)C(C)C)[C@@H](C)O [compound 252] (H-KCNTATCTVQ[Cit]LAHQIYQFTDKDKDNVAPATNVGSNG[Hyp]-NH2; disulfide 2-7; N-terminus assumed)	27.550	11.22	< 5.30
CC[C@H](C)[C@H](NC(=O)[C@H](CCC(N)=O)NC(=O)[C@H](Cc1c[nH]cn1)NC(=O)[C@H](C)NC(=O)[C@H](CC(C)C)NC(=O)[C@H](CCCNC(N)=O)NC(=O)[C@H](CCC(N)=O)NC(=O)[C@@H](NC(=O)[C@@H](NC(=O)[C@@H]1CSSC[C@H](NC(=O)[C@@H](N)CCCCN)C(=O)N[C@@H](CC(N)=O)C(=O)N[C@@H]([C@@H](C)O)C(=O)N[C@@H](C)C(=O)N[C@@H]([C@@H](C)O)C(=O)N1)[C@@H](C)O)C(C)C)C(=O)N[C@@H](Cc1ccc(O)cc1)C(=O)N[C@@H](CCC(N)=O)C(=O)N[C@@H](Cc1ccccc1)C(=O)N[C@H](C(=O)N[C@@H](CCCCN)C(=O)N[C@@H](CC(=O)O)C(=O)N[C@@H](CCCCN)C(=O)N[C@@H](CC(=O)O)C(=O)N[C@@H](CC(N)=O)C(=O)N[C@H](C(=O)N[C@@H](C)C(=O)N1CCC[C@H]1C(=O)N1CCC[C@H]1C(=O)N[C@H](C(=O)N[C@@H](CC(N)=O)C(=O)N[C@H](C(=O)NCC(=O)N[C@@H](CO)C(=O)N[C@@H](CC(N)=O)C(=O)NCC(=O)N1C[C@H](O)C[C@H]1C(N)=O)C(C)C)[C@@H](C)O)C(C)C)[C@@H](C)O [compound 253] (H-KCNTATCTVQ[Cit]LAHQIYQFTKDKDNVAPPTNVGSNG[Hyp]-NH2; disulfide 2-7; N-terminus assumed)	9.600	11.40	< 5.30
CC[C@H](C)[C@H](NC(=O)[C@H](CCC(N)=O)NC(=O)[C@H](Cc1c[nH]cn1)NC(=O)[C@H](C)NC(=O)[C@H](CC(C)C)NC(=O)[C@H](CCCNC(N)=O)NC(=O)[C@H](CCC(N)=O)NC(=O)[C@@H](NC(=O)[C@@H](NC(=O)[C@@H]1CSSC[C@H](NC(=O)[C@@H](N)CCCCN)C(=O)N[C@@H](CC(N)=O)C(=O)N[C@@H]([C@@H](C)O)C(=O)N[C@@H](C)C(=O)N[C@@H]([C@@H](C)O)C(=O)N1)[C@@H](C)O)C(C)C)C(=O)N[C@@H](Cc1ccc(O)cc1)C(=O)N[C@@H](CCC(N)=O)C(=O)N[C@@H](Cc1ccccc1)C(=O)N[C@H](C(=O)N[C@@H](CC(=O)O)C(=O)N[C@@H](CCCCN)C(=O)N[C@@H](CC(=O)O)C(=O)N[C@@H](CCCCN)C(=O)N[C@@H](CC(=O)O)C(=O)N[C@@H](CC(N)=O)C(=O)N[C@H](C(=O)N1CCC[C@H]1C(=O)N1CCC[C@H]1C(=O)N[C@H](C(=O)N[C@@H](CC(N)=O)C(=O)N[C@H](C(=O)NCC(=O)N[C@@H](CO)C(=O)N[C@@H](CC(N)=O)C(=O)NCC(=O)N1C[C@H](O)C[C@H]1C(N)=O)C(C)C)[C@@H](C)O)C(C)C)[C@@H](C)O [compound 254] (H-KCNTATCTVQ[Cit]LAHQIYQFTDKDKDNVPPTNVGSNG[Hyp]-NH2; disulfide 2-7)	12.050	11.22	< 5.30
CC[C@H](C)[C@H](NC(=O)[C@H](CCC(N)=O)NC(=O)[C@H](Cc1c[nH]cn1)NC(=O)[C@H](C)NC(=O)[C@H](CC(C)C)NC(=O)[C@H](CCCNC(N)=O)NC(=O)[C@H](CCC(N)=O)NC(=O)[C@@H](NC(=O)[C@@H](NC(=O)[C@@H]1CSSC[C@H](NC(=O)[C@@H](N)CCCCN)C(=O)N[C@@H](CC(N)=O)C(=O)N[C@@H]([C@@H](C)O)C(=O)N[C@@H](C)C(=O)N[C@@H]([C@@H](C)O)C(=O)N1)[C@@H](C)O)C(C)C)C(=O)N[C@@H](Cc1ccc(O)cc1)C(=O)N[C@@H](CCC(N)=O)C(=O)N[C@@H](Cc1ccccc1)C(=O)N[C@H](C(=O)N[C@@H](CC(=O)O)C(=O)N[C@@H](CCCCN)C(=O)N[C@@H](CC(=O)O)C(=O)N[C@@H](CCCCN)C(=O)N[C@@H](CC(=O)O)C(=O)N[C@@H](CC(N)=O)C(=O)N[C@H](C(=O)N[C@@H](C)C(=O)N1CCC[C@H]1C(=O)N[C@H](C(=O)N[C@@H](CC(N)=O)C(=O)N[C@H](C(=O)NCC(=O)N[C@@H](CO)C(=O)N[C@@H](CC(N)=O)C(=O)NCC(=O)N1C[C@H](O)C[C@H]1C(N)=O)C(C)C)[C@@H](C)O)C(C)C)[C@@H](C)O [compound 255] (H-KCNTATCTVQ[Cit]LAHQIYQFTDKDKDNVAPTNVGSNG[Hyp]-NH2; disulfide 2-7; N-terminus assumed)	25.000	11.15	< 5.30
CC[C@H](C)[C@H](NC(=O)[C@H](CCC(N)=O)NC(=O)[C@H](CCC(=O)O)NC(=O)[C@H](C)NC(=O)[C@H](CC(C)C)NC(=O)[C@H](CCCNC(N)=O)NC(=O)[C@H](C)NC(=O)[C@@H](NC(=O)[C@@H](NC(=O)[C@@H]1CSSC[C@H](NC(=O)[C@@H](N)CCCNC(=N)N)C(=O)N[C@@H](CCC(N)=O)C(=O)N[C@@H]([C@@H](C)O)C(=O)N[C@@H](CO)C(=O)N[C@@H]([C@@H](C)O)C(=O)N1)[C@@H](C)O)C(C)C)C(=O)N[C@@H](C)C(=O)N[C@@H](CCC(N)=O)C(=O)N[C@@H](Cc1ccc(O)cc1)C(=O)N[C@H](C(=O)N[C@@H](CC(=O)O)C(=O)N[C@@H](CCCCN)C(=O)N[C@@H](CC(=O)O)C(=O)N[C@@H](CCCCN)C(=O)N[C@@H](CC(=O)O)C(=O)N[C@@H](CCC(N)=O)C(=O)N[C@H](C(=O)N[C@@H](C)C(=O)N1CCC[C@H]1C(=O)N1CCC[C@H]1C(=O)N[C@H](C(=O)N[C@@H](CC(N)=O)C(=O)N[C@H](C(=O)NCC(=O)N[C@@H](CO)C(=O)N[C@@H](CC(N)=O)C(=O)N[C@@H](CO)C(=O)N1C[C@H](O)C[C@H]1C(N)=O)C(C)C)[C@@H](C)O)C(C)C)[C@@H](C)O [compound 256] (H-RCQTSTCTVA[Cit]LAEQIAQYTDKDKDQVAPPTNVGSNS[Hyp]-NH2; disulfide 2-7; N-terminus assumed)	18.650	11.15	< 5.30
